US4459290A, “C-23-Modified derivatives of OMT, pharmaceutical compositions and method of use” (priority 1982, dated 1984)
Converted amounts (≈) assume the structure as drawn. Where two headings read alike, the source gives them in different places.

Assays:
[1] = system: Klebsiella pneumoniae X26; experiment: MIC, standard agar-dilution assay (Table V); assay type: cell-based; conditions: Klebsiella pneumoniae
Experimental: (§1) Especially noteworthy is the improved activity against gram-negative bacteria for several derivatives when compared to the activity of OMT. […] The MIC's in Tables V and VI were determined by standard agar-dilution assays. The MIC's in Table VII were obtained using a conventional broth-dilution microtiter test.

[2] = system: Staphylococcus aureus X400; experiment: MIC, standard agar-dilution assay (Table V); assay type: cell-based; conditions: Staphylococcus aureus, X400
Experimental: as §1

[3] = system: Haemophilus influenzae Holt; experiment: MIC, standard agar-dilution assay (Table V); assay type: cell-based; conditions: Haemophilus influenzae
Experimental: (§2) The MIC's in Tables V and VI were determined by standard agar-dilution assays. The MIC's in Table VII were obtained using a conventional broth-dilution microtiter test.

[4] = system: Haemophilus influenzae R252; experiment: MIC, standard agar-dilution assay (Table V); assay type: cell-based; conditions: Haemophilus influenzae, R252
Experimental: as §2

[5] = system: Streptococcus pyogenes C203; experiment: MIC, standard agar-dilution assay (Table V); assay type: cell-based; conditions: Streptococcus pyogenes, C203
Experimental: as §2

[6] = system: Citrobacter freundii CF17; experiment: MIC, standard agar-dilution assay (Table VI); assay type: cell-based
Experimental: as §1

[7] = system: Enterobacter aerogenes C32; experiment: MIC, standard agar-dilution assay (Table VI); assay type: cell-based; conditions: Klebsiella aerogenes, C32
Experimental: as §1

[8] = system: Enterobacter aerogenes EB17; experiment: MIC, standard agar-dilution assay (Table VI); assay type: cell-based; conditions: Klebsiella aerogenes, EB17
Experimental: as §1

Enterobacter cloacae EB5 = experiment: MIC, standard agar-dilution assay (Table VI); assay type: cell-based
Experimental: as §1

[9] = system: Klebsiella pneumoniae X68; experiment: MIC, standard agar-dilution assay (Table VI); assay type: cell-based; conditions: X68
Experimental: as §1

Proteus inconstans PR33 = experiment: MIC, standard agar-dilution assay (Table VI); assay type: cell-based; conditions: Providencia alcalifaciens
Experimental: as §1

Proteus morganii PR15 = experiment: MIC, standard agar-dilution assay (Table VI); assay type: cell-based; conditions: Morganella morganii, PR15
Experimental: as §1

Proteus rettgeri C24 = experiment: MIC, standard agar-dilution assay (Table VI); assay type: cell-based; conditions: Providencia rettgeri, P. rettgeri C24
Experimental: as §1

Proteus rettgeri PR7 = experiment: MIC, standard agar-dilution assay (Table VI); assay type: cell-based; conditions: Providencia rettgeri
Experimental: as §1

[10] = system: Pseudomonas aeruginosa Ps18; experiment: MIC, standard agar-dilution assay (Table VI); assay type: cell-based
Experimental: as §1

[11] = system: Pseudomonas aeruginosa X239; experiment: MIC, standard agar-dilution assay (Table VI); assay type: cell-based; conditions: X239
Experimental: as §1

[12] = system: Pseudomonas aeruginosa X528; experiment: MIC, standard agar-dilution assay (Table VI); assay type: cell-based; conditions: P. aeruginosa X528, agar dilution, read-out: MIC
Experimental: as §1

[13] = system: Salmonella heidelberg X514; experiment: MIC, standard agar-dilution assay (Table VI); assay type: cell-based; conditions: Salmonella enterica, X514
Experimental: as §1

Salmonella typhi 1335 = experiment: MIC, standard agar-dilution assay (Table VI); assay type: cell-based; conditions: Salmonella enterica
Experimental: as §1

Serratia marcescens SE3 = experiment: MIC, standard agar-dilution assay (Table VI); assay type: cell-based
Experimental: as §1

Serratia marcescens X99 = experiment: MIC, standard agar-dilution assay (Table VI); assay type: cell-based; conditions: X99
Experimental: as §1

Mycoplasma gallisepticum = experiment: MIC, broth-dilution microtiter test (Table VII); assay type: cell-based; conditions: Mycoplasmoides gallisepticum; M. gallisepticum; broth-dilution microtiter; read-out: MIC
Experimental: as §1

Mycoplasma hyorhinis = experiment: MIC, broth-dilution microtiter test (Table VII); assay type: cell-based; conditions: M. hyorhinis; broth-dilution microtiter; read-out: MIC
Experimental: as §1

Mycoplasma synoviae = experiment: MIC, broth-dilution microtiter test (Table VII); assay type: cell-based; conditions: Mycoplasmopsis synoviae; M. synoviae; broth-dilution microtiter; read-out: MIC
Experimental: as §1

[14] = system: Pasteurella hemolytica 22C; experiment: MIC, broth-dilution microtiter test (Table VII); assay type: cell-based; conditions: Pasteurella, P. hemolytica 22C, read-out: MIC
In short: (§3)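 Broth microdilution, run as a conventional microtiter test, supplied MICs for the gram-positive S. aureus and the Pasteurella isolates. Enterobacter data instead rest on a standard agar-dilution procedure.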

[15] = system: Pasteurella hemolytica 23C; experiment: MIC, broth-dilution microtiter test (Table VII); assay type: cell-based; conditions: Pasteurella, P. hemolytica 23C, read-out: MIC
In short: as §3

[16] = system: Pasteurella hemolytica 41D; experiment: MIC, broth-dilution microtiter test (Table VII); assay type: cell-based; conditions: Pasteurella, P. hemolytica 41D, read-out: MIC
In short: as §3

[17] = system: Pasteurella multocida 17E; experiment: MIC, broth-dilution microtiter test (Table VII); assay type: cell-based; conditions: Pasteurella multocida; P. multocida 17E, bovine isolate; broth-dilution microtiter; read-out: MIC
In short: (§4)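 Serial compound dilutions were incorporated into agar for testing E. aerogenes. Dilutions in broth, arranged in microtiter wells, were used for S. aureus and P. multocida.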

[18] = system: Pasteurella multocida 22A; experiment: MIC, broth-dilution microtiter test (Table VII); assay type: cell-based; conditions: Pasteurella multocida; P. multocida 22A; broth-dilution microtiter; read-out: MIC
In short: as §4

[19] = system: Pasteurella multocida 40G; experiment: MIC, broth-dilution microtiter test (Table VII); assay type: cell-based; conditions: Pasteurella multocida; P. multocida 40G; broth-dilution microtiter; read-out: MIC
In short: as §4

[20] = system: Pasteurella multocida 60A; experiment: MIC, broth-dilution microtiter test (Table VII); assay type: cell-based; conditions: Pasteurella multocida; P. multocida 60A, avian isolate; broth-dilution microtiter; read-out: MIC
In short: as §4

[21] = system: Pasteurella multocida 68C; experiment: MIC, broth-dilution microtiter test (Table VII); assay type: cell-based; conditions: Pasteurella multocida; P. multocida 68C; broth-dilution microtiter; read-out: MIC
In short: as §4

Staphylococcus aureus = experiment: MIC, broth-dilution microtiter test (Table VII); assay type: cell-based; conditions: Staphylococcus aureus; S. aureus; broth-dilution microtiter; read-out: MIC
In short: as §4

Streptococcus sp. 80 = experiment: MIC, broth-dilution microtiter test (Table VII); assay type: cell-based; conditions: Streptococcus sp. 80; broth-dilution microtiter; read-out: MIC
Experimental: as §1

[22] = system: Streptococcus pyogenes C203; experiment: ED50 in mice experimentally infected with S. pyogenes C203 (Table VIII); assay type: in vivo
Experimental: The C-23 modified derivatives of OMT of this invention have shown in vivo antimicrobial activity against experimental infections. When two doses of test compound were administered to mice experimentally infected with a gram-positive bacterium, S. pyogenes C203, the activity observed was measured as an ED50 value [effective dose in mg/kg to protect 50% of the test animals: see Warren Wick, et al., J. Bacteriol. 81, 233-235 (1961)].

[23] = C203, sc, mice, subcutaneous, doses given 1 and 4 hours postinfection, read-out: ED50, Subcutaneous

Compound	MIC [2] [µg/mL]	MIC [4] [µg/mL]	MIC [5] [µg/mL]	MIC [7] [µg/mL]	MIC [8] [µg/mL]	MIC [9] [µg/mL]	MIC (Proteus morganii PR15) [µg/mL]	MIC (Proteus rettgeri C24) [µg/mL]	MIC [11] [µg/mL]	MIC [12] [µg/mL]	MIC [13] [µg/mL]	MIC (Salmonella typhi 1335) [µg/mL]	MIC (Serratia marcescens X99) [µg/mL]	MIC (Mycoplasma gallisepticum) [µg/mL]	MIC (Mycoplasma hyorhinis) [µg/mL]	MIC (Mycoplasma synoviae) [µg/mL]	MIC [14] [µg/mL]	MIC [15] [µg/mL]	MIC [16] [µg/mL]	MIC [17] [µg/mL]	other results
CCC1OC(=O)CC(O)C(C)C(OC2OC(C)C(O)C(N(C)C)C2O)C(CC=O)CC(C)C(=O)C=CC(C)=CC1CSC(C)=O (stereo not drawn) [Compound 7, 23-Deoxy-23-(acetyl)thio-OMT]	0.25 (≈ 0.381 µM)	2 (≈ 3.05 µM)	0.25 (≈ 0.381 µM)	> 128	> 128	> 128	> 128	64 (≈ 97.6 µM)	> 128	32 (≈ 48.8 µM)	> 128	> 128	> 128	0.19 (≈ 0.29 µM)	6.25 (≈ 9.53 µM)	≤ 0.05	6.25 (≈ 9.53 µM)	6.25 (≈ 9.53 µM)	6.25 (≈ 9.53 µM)	3.12 (≈ 4.76 µM)	MIC ([1]; X26): 4 µg/mL (≈ 6.1 µM); MIC ([3]; H. influenzae Holt, ampicillin-sensitive strain, agar dilution, read-out: MIC): 1 µg/mL (≈ 1.52 µM); MIC ([6]; CF17): > 128 µg/mL; MIC (Enterobacter cloacae EB5; EB5): > 128 µg/mL; MIC (Proteus inconstans PR33; PR33): > 128 µg/mL; MIC (Proteus rettgeri PR7; PR7): > 128 µg/mL; MIC ([10]; PS18): > 128 µg/mL; MIC (Serratia marcescens SE3; SE3): > 128 µg/mL; MIC [18]: 1.56 µg/mL (≈ 2.38 µM); MIC [19]: 0.78 µg/mL (≈ 1.19 µM); MIC [20]: 3.12 µg/mL (≈ 4.76 µM); MIC [21]: 1.56 µg/mL (≈ 2.38 µM); MIC (Staphylococcus aureus): 0.39 µg/mL (≈ 0.595 µM); MIC (Streptococcus sp. 80): 0.39 µg/mL (≈ 0.595 µM); ED50 ([22]; C203, po, read-out: ED50, Oral): > 100 mg/kg; ED50 [22, 23]: 21.4 mg/kg
CCC1OC(=O)CC(O)C(C)C(OC2OC(C)C(O)C(N(C)C)C2O)C(CC=O)CC(C)C(=O)C=CC(C)=CC1CN=[N+]=[N-] (stereo not drawn) [Compound 8, 23-Deoxy-23-azido-OMT]	0.25 (≈ 0.401 µM)	1 (≈ 1.61 µM)	0.125 (≈ 0.201 µM)	64 (≈ 103 µM)	64 (≈ 103 µM)	64 (≈ 103 µM)	64 (≈ 103 µM)	32 (≈ 51.4 µM)	64 (≈ 103 µM)	16 (≈ 25.7 µM)	64 (≈ 103 µM)	64 (≈ 103 µM)	64 (≈ 103 µM)	0.39 (≈ 0.626 µM)	3.12 (≈ 5.01 µM)	0.39 (≈ 0.626 µM)	6.25 (≈ 10 µM)	6.25 (≈ 10 µM)	6.25 (≈ 10 µM)	1.56 (≈ 2.5 µM)	MIC ([1]; K. pneumoniae X26, agar dilution, read-out: MIC): 4 µg/mL (≈ 6.42 µM); MIC [3]: 1 µg/mL (≈ 1.61 µM); MIC ([6]; C. freundii CF17, agar dilution, read-out: MIC): > 128 µg/mL; MIC (Enterobacter cloacae EB5; E. cloacae EB5, agar dilution, read-out: MIC): > 128 µg/mL; MIC (Proteus inconstans PR33; P. inconstans PR33, agar dilution, read-out: MIC): > 128 µg/mL; MIC (Proteus rettgeri PR7; P. rettgeri PR7, agar dilution, read-out: MIC): 32 µg/mL (≈ 51.4 µM); MIC ([10]; P. aeruginosa Ps18, agar dilution, read-out: MIC): 32 µg/mL (≈ 51.4 µM); MIC (Serratia marcescens SE3; S. marcescens SE3, agar dilution, read-out: MIC): > 128 µg/mL; MIC [18]: 1.56 µg/mL (≈ 2.5 µM); MIC [19]: 1.56 µg/mL (≈ 2.5 µM); MIC [20]: 3.12 µg/mL (≈ 5.01 µM); MIC [21]: 1.56 µg/mL (≈ 2.5 µM); MIC (Staphylococcus aureus): ≤ 0.78 µg/mL; MIC (Streptococcus sp. 80): ≤ 0.78 µg/mL; ED50 ([22]; C203, po, read-out: ED50, Oral): > 100 mg/kg; ED50 [22, 23]: 6.3 mg/kg
